# Measured values taken from patent US10314823B2, “Substituted 1,2-dihydro-3H-pyrrolo[1,2-c]imidazol-3-one antibacterial compounds” (IDORSIA PHARMACEUTICALS LTD, priority 2015, dated 2019).
# Tests used:
# Test in all cases: Bacterial growth minimal inhibitory concentration (CLSI broth microdilution)
# Type in all cases: cell-based
# E. coli ATCC25922 = conditions: Escherichia coli, ATCC25922; quinolone-sensitive strain; cation-adjusted Mueller-Hinton Broth
# Protocol: (§1) Minimal Inhibitory Concentrations (MICs; mg/L) were determined in cation-adjusted Mueller-Hinton Broth by a microdilution method following the description given in “Methods for Dilution Antimicrobial Susceptibility Tests for Bacteria that Grow Aerobically”, Approved standard, 7th ed., Clinical and Laboratory Standards Institute (CLSI) Document M7-A7, Wayne, Pa., USA (2006).
# (§2) All Reference Example compounds were tested against several Gram-negative bacteria. K. pneumoniae A-651 is a multiply resistant strain (in particular quinolone-resistant), while E. coli ATCC25922 and P. aeruginosa ATCC27853 are quinolone-sensitive strains. The corresponding antibacterial test results are given in Table 1 hereafter (MICs in mg/L).
# K. pneumoniae A-651 = conditions: Klebsiella pneumoniae, A651; multiply resistant strain (in particular quinolone-resistant); cation-adjusted Mueller-Hinton Broth
# Protocol: as §1, §2
# P. aeruginosa ATCC27853 = conditions: Pseudomonas aeruginosa, ATCC27853; quinolone-sensitive strain; cation-adjusted Mueller-Hinton Broth
# Protocol: as §1, §2
SMILES,MIC (E. coli ATCC25922) [µg/mL],MIC (K. pneumoniae A-651) [µg/mL],MIC (P. aeruginosa ATCC27853) [µg/mL]
"C[C@@](CCN1Cc2cc(C#CC#CC3CCN(C4COC4)C3)cn2C1=O)(C(=O)NO)S(C)(=O)=O (stereo partly drawn) [Example 89, (2R)—N-hydroxy-2-methyl-2-(methylsulfonyl)-4-(6-((1-(oxetan-3-yl)pyrrolidin-3-yl)buta-1,3-diyn-1-yl)-3-oxo-1H-pyrrolo[1,2-c]imidazol-2(3H)-yl)butanamide]",1,1,2
"C[C@@](CCN1Cc2cc(C#CC#CC3CN(C[C@@H](O)CO)C3)cn2C1=O)(C(=O)NO)S(C)(=O)=O [Example 51, (2R)-4-(6-((1-((R)-2,3-dihydroxypropyl)azetidin-3-yl)buta-1,3-diyn-1-yl)-3-oxo-1H-pyrrolo[1,2-c]imidazol-2(3H)-yl)-N-hydroxy-2-methyl-2-(methylsulfonyl)butanamide]",1,4,1
"C[C@@](CCN1Cc2cc(C#Cc3ccc(CN4CC(CO)OC4=O)cc3)cn2C1=O)(C(=O)NO)S(C)(=O)=O (mixture of isomers) [Example 12, (2R)—N-hydroxy-4-(6-((4-((RS)-(5-(hydroxymethyl)-2-oxooxazolidin-3-yl)methyl)phenyl)ethynyl)-3-oxo-1H-pyrrolo[1,2-c]imidazol-2(3H)-yl)-2-methyl-2-(methylsulfonyl)butanamide]",1,2,4
"C[C@@](CCN1Cc2cc(C#CC#C[C@@H]3C[C@H](F)CN3)cn2C1=O)(C(=O)NO)S(C)(=O)=O.Cl [Example 53, (2R)-4-(6-(((2S,4S)-4-fluoropyrrolidin-2-yl)buta-1,3-diyn-1-yl)-3-oxo-1H-pyrrolo[1,2-c]imidazol-2(3H)-yl)-N-hydroxy-2-methyl-2-(methylsulfonyl)butanamide hydrochloride]",4,4,4
"C[C@@](CCN1Cc2cc(C#CC#C[C@@H]3C[C@H]3[C@H](O)CO)cn2C1=O)(C(=O)NO)S(C)(=O)=O [Example 7, (2R)-4-(6-(((1R,2R)-2-((S)-1,2-dihydroxyethyl)cyclopropyl)buta-1,3-diyn-1-yl)-3-oxo-1H-pyrrolo[1,2-c]imidazol-2(3H)-yl)-N-hydroxy-2-methyl-2-(methylsulfonyl)butanamide]",0.5,2,0.5
"C[C@@](CCN1Cc2cc(C#Cc3ccc(CN4CC5C(N)C5C4)cc3)cn2C1=O)(C(=O)NO)S(C)(=O)=O (stereo partly drawn) [Example 4, (2R)-4-(6-((4-((6-amino-3-azabicyclo[3.1.0]hexan-3-yl)methyl)phenyl)ethynyl)-3-oxo-1H-pyrrolo[1,2-c]imidazol-2(3H)-yl)-N-hydroxy-2-methyl-2-(methylsulfonyl)butanamide]",2,2,2
"[2H]CN1CC(C#CC#Cc2cc3n(c2)C(=O)N(CC[C@](C)(C(=O)NO)S(C)(=O)=O)C3)C1 [Example 60, (2R)—N-hydroxy-2-methyl-4-(6-((1-(methyl-d)azetidin-3-yl)buta-1,3-diyn-1-yl)-3-oxo-1H-pyrrolo[1,2-c]imidazol-2(3H)-yl)-2-(methylsulfonyl)butanamide]",0.5,0.5,0.5
"[2H]C([2H])N1CC(C#CC#Cc2cc3n(c2)C(=O)N(CC[C@](C)(C(=O)NO)S(C)(=O)=O)C3)C1 [Example 52, (2R)—N-hydroxy-2-methyl-4-(6-((1-(methyl-d2)azetidin-3-yl)buta-1,3-diyn-1-yl)-3-oxo-1H-pyrrolo[1,2-c]imidazol-2(3H)-yl)-2-(methylsulfonyl)butanamide]",0.5,0.5,0.5
"C[C@@](CCN1Cc2cc(C#CC#CC3CN(C4CCCC4)C3)cn2C1=O)(C(=O)NO)S(C)(=O)=O [Example 73, (2R)-4-(6-((1-cyclopentylazetidin-3-yl)buta-1,3-diyn-1-yl)-3-oxo-1H-pyrrolo[1,2-c]imidazol-2(3H)-yl)-N-hydroxy-2-methyl-2-(methylsulfonyl)butanamide]",0.5,0.25,1
"CN1C[C@@H](C#CC#Cc2cc3n(c2)C(=O)N(CC[C@](C)(C(=O)NO)S(C)(=O)=O)C3)C[C@@H]1CO (single isomer, unassigned) [Example 94]",1,1,0.5

# Further molecules by falling MIC (E. coli ATCC25922), results first:
MIC (E. coli ATCC25922) [µg/mL],MIC (K. pneumoniae A-651) [µg/mL],MIC (P. aeruginosa ATCC27853) [µg/mL],SMILES
0.5,1,2,"C[C@@](CCN1Cc2cc(C#CC#CC3(F)CN(CCO)C3)cn2C1=O)(C(=O)NO)S(C)(=O)=O [Example 66, (2R)-4-(6-((3-fluoro-1-(2-hydroxyethyl)azetidin-3-yl)buta-1,3-diyn-1-yl)-3-oxo-1H-pyrrolo[1,2-c]imidazol-2(3H)-yl)-N-hydroxy-2-methyl-2-(methylsulfonyl)butanamide]"
0.5,0.5,2,"C[C@@](CCN1Cc2cc(C#Cc3ccc(CN4CC[C@H](O)C(F)(F)C4)cc3)cn2C1=O)(C(=O)NO)S(C)(=O)=O [Example 37, (2R)-4-(6-((4-(((S)-3,3-difluoro-4-hydroxypiperidin-1-yl)methyl)phenyl)ethynyl)-3-oxo-1H-pyrrolo[1,2-c]imidazol-2(3H)-yl)-N-hydroxy-2-methyl-2-(methylsulfonyl)butanamide]"
0.25,0.5,0.25,"C[C@@H]1[C@@H](C#CC#Cc2cc3n(c2)C(=O)N(CC[C@](C)(C(=O)NO)S(C)(=O)=O)C3)CN1C [Example 93, (2R)-4-(6-(((2R,3S)-1,2-dimethylazetidin-3-yl)buta-1,3-diyn-1-yl)-3-oxo-1H-pyrrolo[1,2-c]imidazol-2(3H)-yl)-N-hydroxy-2-methyl-2-(methylsulfonyl)butanamide]"
0.25,0.5,2,"CN1CC[C@@](F)(C#CC#Cc2cc3n(c2)C(=O)N(CC[C@](C)(C(=O)NO)S(C)(=O)=O)C3)C1.O=C(O)C(F)(F)F (single isomer, unassigned) [Example 71]"
0.125,0.5,1,"C[C@@](CCN1Cc2cc(C#Cc3ccc(OCCS(C)(=O)=O)cc3)cn2C1=O)(C(=O)NO)S(C)(=O)=O [Example 25, (2R)—N-hydroxy-2-methyl-2-(methylsulfonyl)-4-(6-((4-(2-(methylsulfonyl)ethoxy)phenyl)ethynyl)-3-oxo-1H-pyrrolo[1,2-c]imidazol-2(3H)-yl)butanamide]"
0.125,0.5,0.063,"C[C@@](CCN1Cc2cc(C#CC#CC3CN(C4CC4)C3)cn2C1=O)(C(=O)NO)S(C)(=O)=O [Example 57, (2R)-4-(6-((1-cyclopropylazetidin-3-yl)buta-1,3-diyn-1-yl)-3-oxo-1H-pyrrolo[1,2-c]imidazol-2(3H)-yl)-N-hydroxy-2-methyl-2-(methylsulfonyl)butanamide]"
0.063,0.5,0.5,"C[C@@](CCN1Cc2cc(C#CC#CC3CN(CCF)C3)cn2C1=O)(C(=O)NO)S(C)(=O)=O [Example 61, (2R)-4-(6-((1-(2-fluoroethyl)azetidin-3-yl)buta-1,3-diyn-1-yl)-3-oxo-1H-pyrrolo[1,2-c]imidazol-2(3H)-yl)-N-hydroxy-2-methyl-2-(methylsulfonyl)butanamide]"
